Source: US8765188B2, “Composition for treating and/or preventing osteoporosis” (Taipei Medical University, priority 2011, dated 2014)
Marks after values point to notes of the source that are not given here.

Test system: ovariectomized rat model of osteoporosis
Experiment: Bone histomorphometry of tibia trabecular bone with micro-CT
Type: in vivo
Conditions: OVX rats, DVAB composition 0.2 g/kg, positive 0.1 mg/5 ml/kg ethinylestridiol, 20 weeks
Protocol: In an ovariectomized rat model of osteoporosis, rats were divided into sham (5 ml/kg ddH2O without ovariectomy) and ovariectomized (OVX) groups. The OVX rats were then subdivided into two groups orally treated with 5 ml/kg ddH2O (control group) and DVAB composition (0.2 g/kg) daily for 20 weeks. The positive group refers to rats receiving 0.1 mg/5 ml/kg of ethinylestridiol.
Biomechanical strength also was measured by three-point bending test of femur and compression test of vertebra. Furthermore, the tibia from rats was measured by cancellous bone histomorphometry with micro-CT. In this study, percentage of bone volume (BV/TV), trabecular thickness (Tb, Th), trabecular number (Tb, N), trabecular separation (Tb, Sp) and structure model index (SMI) were measured.

## C#C[C@]1(O)CC[C@H]2[C@@H]3CCc4cc(O)ccc4[C@H]3CC[C@@]21C [Positive Control, ethinylestridiol]
  BV/TV: 25.69 +/− 10.41* %
  SMI: 1.29 +/− 0.52^#
  Tb.N: 0.0028 +/− 0.0010* 1/μm
  Tb.Sp: 255.99 +/− 94.24* μm
  Tb.Th: 90.29 +/− 4.01 μm
